The structures appear in SMILES notation.

A short description of data set [1]: Physical properties of F-tert-butylcyclohexane. The data set is classed as physicochemical. The source says: Oxycyte™ is based on the perfluorocarbon F-tert-butylcyclohexane, a saturated alicyctic PFC (molecular formula C10F20) and can be used as a PFC composition in the methods and uses described herein. Physical properties of F-tert-butylcyclohexane are as follows: […]

Another data set can be described thus: Lipophilicity of the PFC. The data set is classed as physicochemical. The text has this:
Circulation of the perflurocarbon liquid can be employed so that the patient floats without constraints, alleviating pain associated with usual system of treatment. As the liquid is continuously circulated, external heating or cooling of the fluid can be employed in order to maintain a comfort level for the patient. The fluid is preferably filtered to assure a biologically inert and/or sterile liquid environment for the patient. Additionally, a gas mixture containing 0 to 100% oxygen from (with adequate controls and precautions for ultra-ambient levels) is bubbled in the circulating PFC to supply oxygen to the patient's skin. PFCs are excellent transporters of oxygen and carbon dioxide; being that the PFCs are slightly lipophilic at body temperature and would help in the transport of oxygen into and removal of carbon dioxide from the skin tissue, accelerating the healing process.

The compound `FC(F)(F)C(C(F)(F)F)(C(F)(F)F)C1(F)C(F)(F)C(F)(F)C(F)(F)C(F)(F)C1(F)F` [F-tert-butylcyclohexane, perfluoro-tert-butylcyclohexane] came in with a Density in data set [1] of 1.97 g/mL. Further, in data set [1], the “Kinematic Viscosity” value was 5.378 cP. In addition, the “Vapor Pressure” value is reported as 3.8 mmHg in data set [1] (@25° C.) and 4.4 mmHg in data set [1] (@37° C.). Also, the Lipophilicity entry is given as “only slightly lipophilic” in the data set “Lipophilicity of the PFC” (at body temperature) and “not lipophilic” in the data set “Lipophilicity of the PFC” (at room temperature).

The values above are taken from patent US20110229575A1, “DEEP IMMERSION FLOTATION THERAPY FOR BURN VICTIMS” (priority 2008, published 2011).
